Data as given in US20130012493A1, “NOVEL SPIRO IMIDAZOLONE DERIVATIVES AS GLUCAGON RECEPTOR ANTAGONISTS, COMPOSITIONS, AND METHODS FOR THEIR USE” (priority 2010, published 2013).

Molecular target: T1, recombinant human glucagon receptor (Homo sapiens, UniProt P47871)
T1 construct: expressed in transfected cells; host or cells: CHO (Chinese hamster ovary) cells
Experiment: Inhibition of glucagon-stimulated intracellular cAMP assay
Format: cell-based
Conditions: CHO cells expressing recombinant human glucagon receptor, stimulated with 300 pM glucagon
Protocol: Inhibition of Glucagon-Stimulated Intracellular cAMP Assay
Chinese hamster ovary (CHO) cells expressing the recombinant human glucagon receptor were harvested with the aid of non-enzymatic cell dissociation solution (GIBCO 13151-014). The cells were then pelleted and suspended in the stimulation buffer (1×HBSS, 5 mM Hepes, 0.1% BSA, pH7.4 in presence of complete protease inhibitor and phosphodiesterase inhibitor). The adenylate cyclase assay was conducted following the LANCE cAMP Kit (Perkin Elmer, AD0262) instructions. Briefly, cells were preincubated with anti-cAMP antibody in the stimulation buffer with a final concentration of 3% DMSO for 30 minutes and then stimulated with 300 pM glucagon for 45 minutes. The reaction was stopped by incubating with the detection buffer containing Europium chelate of the Eu-SA/Biotin-cAMP tracer for 20 hours. The fluorescence intensity emitted from the assay was measured at 665 nm using PheraStar instruments. […] Standard cAMP concentrations were conducted concurrently for conversion of fluorescence signal to cAMP level. Data was analyzed using GraphPad Prism. IC50 values were calculated using non-linear regression analysis assuming single site competition. […] Some of the compounds of the invention shown in the examples measured less than about 5 μM in this assay; other examples measured less than about 500 nM; others less than about 100 nM.

T1 sequence (P47871 26-477): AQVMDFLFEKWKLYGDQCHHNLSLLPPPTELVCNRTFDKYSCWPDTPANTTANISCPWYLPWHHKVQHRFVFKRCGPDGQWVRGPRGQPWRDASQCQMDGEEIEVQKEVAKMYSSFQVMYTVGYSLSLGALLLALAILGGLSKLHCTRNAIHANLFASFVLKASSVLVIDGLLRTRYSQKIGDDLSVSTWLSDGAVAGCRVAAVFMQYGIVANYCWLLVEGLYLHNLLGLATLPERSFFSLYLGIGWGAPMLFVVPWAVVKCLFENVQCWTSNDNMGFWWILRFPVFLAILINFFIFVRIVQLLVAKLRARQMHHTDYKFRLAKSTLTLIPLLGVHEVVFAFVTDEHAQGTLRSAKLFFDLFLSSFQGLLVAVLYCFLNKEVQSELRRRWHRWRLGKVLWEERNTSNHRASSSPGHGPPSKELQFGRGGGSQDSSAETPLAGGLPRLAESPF

Row | IC50 [nM] | Structure (SMILES)
1 | 290 | CC(C)(C)CC[C@H](c1ccc(C(=O)NCc2nn[nH]n2)cc1)N1C(=O)C(C2CCCCC2)=NC12CCC(C(C)(C)C)CC2 (some centres unmarked) [Example 9.99]
2 | 209 | CC[C@H](c1ccc(C(=O)NCCC(=O)O)cc1)N1C(=O)C(N2CCCCC2)=NC12CCC(C(C)(C)C)CC2 (some centres unmarked) [Example 10.4]
